Results: patent US20230016034A1, “ENHANCEMENT OF iPSC-DERIVED EFFECTOR IMMUNE CELL USING SMALL COMPOUNDS” (Fate Therapeutics, Inc., priority 2019, published 2023)

Tested on: Nalm6-luciferase cells
Test: In vivo efficacy of dexamethasone-treated post-thaw CD19-CAR iT cells, systemic Nalm6-luciferase model
Parameters: species or system NSG female mice
Conditions: p>0.1
Source text: Tumor progression was monitored at days 7, 14 and 20 post tumor injection by bioluminescent imaging. CAR-iT cells treated with dexamethasone (FIG. 8B) were compared with control cells without dexamethasone treatment (FIG. 8A) in cultures for iv/iv in vivo efficacy.

C[C@@H]1C[C@H]2[C@@H]3CCC4=CC(=O)C=C[C@]4(C)[C@@]3(F)[C@@H](O)C[C@]2(C)[C@@]1(O)C(=O)CO [dexamethasone] was tested, and the Days of survival was > 80 days.
